Several values for one entry are separate records, joined by “and”; a condition that tells them apart may be missing. Identical values can stand only once. Toxic doses and inconclusive results are not listed.

Results on 14 molecules are retold here after PubChem BioAssay AID248 (DTP/NCI, 2004).

The test system of the experiment is L1210 leukemia ip in BDF1 mice, survival T/C. Nature of the experiment: NCI In Vivo Anticancer Drug Screen. Data for tumor model L1210 Leukemia (intraperitoneal) in B6D2F1 (BDF1) mice. Conditions: endpoint: mean survival time, higher = longer survival. Summed up: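 Transplanted-tumor mice were given test agent; controls received vehicle only. Survival readings from the two groups were divided (treated over control).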

Setting [1] is: dose: 100.0 mg/kg/injection, schedule: Q01DX009 (ip), vehicle: saline with Tween-80.
[2] abbreviates: dose: 100.0 mg/kg/injection, schedule: Q04DX003 (ip), vehicle: saline with Tween-80.
The mark [3] stands for this setting: dose: 200.0 mg/kg/injection, schedule: Q04DX003 (ip), vehicle: saline with Tween-80.
Where [4] appears, read: dose: 400.0 mg/kg/injection, schedule: Q04DX003 (ip), vehicle: saline with Tween-80.
Setting [5] is: dose: 100.0 mg/kg/injection, schedule: Q01DX001 (ip), vehicle: saline with Tween-80.
Setting [6] is: dose: 100.0 mg/kg/injection, schedule: Q04DX002 (ip), vehicle: saline with Tween-80.
The mark [7] stands for this setting: dose: 200.0 mg/kg/injection, schedule: Q01DX009 (ip), vehicle: saline with Tween-80.
Where [8] appears, read: dose: 200.0 mg/kg/injection, schedule: Q04DX002 (ip), vehicle: saline with Tween-80.
Where [9] appears, read: dose: 400.0 mg/kg/injection, schedule: Q01DX001 (ip), vehicle: saline with Tween-80.
Where [10] appears, read: dose: 400.0 mg/kg/injection, schedule: Q04DX002 (ip), vehicle: saline with Tween-80.
[11] abbreviates: dose: 400.0 mg/kg/injection, schedule: Q01DX009 (ip), vehicle: Klucel (hydroxypropylcellulose) (HPC).
Where [12] appears, read: dose: 100.0 mg/kg/injection, schedule: Q01DX009 (ip), vehicle: Klucel (hydroxypropylcellulose) (HPC).
Where [13] appears, read: dose: 200.0 mg/kg/injection, schedule: Q01DX009 (ip), vehicle: Klucel (hydroxypropylcellulose) (HPC).

Regarding `Nc1cnccc1N1CCN(c2cccc3ccccc23)CC1`, the T/C (dose: 44.0 mg/kg/injection, schedule: Q01DX009 (ip), vehicle: saline with Tween-80) was 98 % of control; the T/C (dose: 67.0 mg/kg/injection, schedule: Q01DX009 (ip), vehicle: saline with Tween-80) was 93 % of control; the T/C under setting [1] is 155 % of control; the T/C under setting [2] was 98 % of control; the T/C under setting [3] was 96 % of control; the T/C under setting [4] was 89 % of control.

With `CCC(C)C(C=NCC(CCN(C)C)(c1ccc2ccccc2c1)C(C)CC)(CCN(C)C)c1ccc2ccccc2c1` (centres undefined), the T/C runs as follows: (dose: 12.5 mg/kg/injection, schedule: Q04DX002 (ip), vehicle: saline + alcohol) 92 % of control; (dose: 12.5 mg/kg/injection, schedule: Q04DX002 (ip), vehicle: saline with Tween-80) 92 % of control; (dose: 25.0 mg/kg/injection, schedule: Q04DX002 (ip), vehicle: saline + alcohol) 92 % of control.

With `COC(=O)c1oc(C(=O)OC)c(OCc2ccccc2)c1OCc1ccccc1`, the T/C by setting is: (dose: 100.0 mg/kg/injection, schedule: Q04DX003 (ip), vehicle: Klucel (hydroxypropylcellulose) (HPC)) 103 % of control; (dose: 200.0 mg/kg/injection, schedule: Q04DX003 (ip), vehicle: Klucel (hydroxypropylcellulose) (HPC)) 106 % of control; (dose: 400.0 mg/kg/injection, schedule: Q04DX003 (ip), vehicle: Klucel (hydroxypropylcellulose) (HPC)) 95 % of control.

For the molecule `CCOc1ccc(NC(=O)Oc2ccc(-c3ccccc3)cc2)cc1`, the T/C runs as follows: under setting [5], 93 % of control; under setting [1], 100 % of control and 90 % of control; under setting [6], 104 % of control and 106 % of control; (dose: 200.0 mg/kg/injection, schedule: Q01DX001 (ip), vehicle: saline with Tween-80) 91 % of control; under setting [7], 87 % of control and 92 % of control; under setting [8], 100 % of control and 101 % of control. Further, the T/C runs as follows: under setting [9], 89 % of control; (dose: 400.0 mg/kg/injection, schedule: Q01DX009 (ip), vehicle: saline with Tween-80) 97 % of control and 87 % of control; under setting [10], 92 % of control.

`CC(=O)Nc1ccccc1C(=NC1CCCC1)C(=O)NC1CCCC1`: the T/C by setting is: (dose: 3.12 mg/kg/injection, schedule: Q01DX009 (ip), vehicle: Klucel (hydroxypropylcellulose) (HPC)) 97 % of control; (dose: 6.25 mg/kg/injection, schedule: Q01DX009 (ip), vehicle: Klucel (hydroxypropylcellulose) (HPC)) 94 % of control; (dose: 12.5 mg/kg/injection, schedule: Q01DX009 (ip), vehicle: Klucel (hydroxypropylcellulose) (HPC)) 89 % of control; under setting [11], 95 % of control.

Consider `CCOc1ccc(/C=C\C(=O)O)cc1`, for which the T/C runs as follows: under setting [12], 97 % of control; under setting [13], 102 % of control; under setting [11], 107 % of control.

`O=C(O)CNC(=O)CNC(=O)C(Br)Cc1ccccc1` (centres undefined): the T/C under setting [12] was 98 % of control; the T/C under setting [2] was 101 % of control; the T/C under setting [13] was 88 % of control; the T/C under setting [3] was 95 % of control; the T/C under setting [4] was 100 % of control.

On to `CN1CCN(C(=O)CCCCCCCCC(Br)CBr)CC1` (centres undefined), for which, where the note is “dose: 15.0 mg/kg/injection, schedule: Q01DX001 (ip), vehicle: saline”, the T/C was 103 % of control.

As to `CCOC(=O)/C=C(\C#N)CC(=O)OCC`, the T/C runs as follows: (dose: 50.0 mg/kg/injection, schedule: Q01DX005 (ip), vehicle: saline) 102 % of control; (dose: 100.0 mg/kg/injection, schedule: Q01DX005 (ip), vehicle: saline) 102 % of control; (dose: 200.0 mg/kg/injection, schedule: Q01DX005 (ip), vehicle: saline) 96 % of control; (dose: 400.0 mg/kg/injection, schedule: Q01DX005 (ip), vehicle: saline) 94 % of control.

In the case of `CCCCCCCCCCNC(C1=C(O)c2ccccc2C(=O)C1=O)c1ccccc1` (centres undefined), the T/C (dose: 25.0 mg/kg/injection, schedule: Q01DX001 (ip), vehicle: saline with Tween-80) is 89 % of control; the T/C under setting [5] was 89 % of control; the T/C under setting [9] is 86 % of control.

In the case of `COC(=O)NNc1ccccc1C(=O)OC`, the T/C runs as follows: under setting [6], 88 % of control; under setting [8], 88 % of control; under setting [10], 98 % of control.

For `O=P(Oc1ccccc1)(Oc1ccccc1)Oc1ccccc1Cl`, the T/C is 96 % of control (dose: 100.0 mg/kg/injection, schedule: Q01DX001 (ip), vehicle: saline); 102 % of control (dose: 200.0 mg/kg/injection, schedule: Q01DX001 (ip), vehicle: saline); 97 % of control (dose: 400.0 mg/kg/injection, schedule: Q01DX001 (ip), vehicle: saline).

On to `CC(=O)OC1(c2ccc(Cl)cc2)OC(=O)C(c2ccccc2)=C1Cc1ccccc1` (centres undefined), for which the T/C is 93 % of control (dose: 12.5 mg/kg/injection, schedule: Q01DX009 (ip), vehicle: saline with Tween-80); 86 % of control (dose: 25.0 mg/kg/injection, schedule: Q01DX009 (ip), vehicle: saline with Tween-80); 86 % of control (dose: 50.0 mg/kg/injection, schedule: Q01DX009 (ip), vehicle: saline with Tween-80); 95 % of control under setting [7].

In the case of `O=C(O)Cn1nnc2ccccc21`, the T/C is 94 % of control (dose: 50.0 mg/kg/injection, schedule: Q01DX009 (ip), vehicle: saline); 249 % of control (dose: 100.0 mg/kg/injection, schedule: Q01DX009 (ip), vehicle: saline); 94 % of control (dose: 200.0 mg/kg/injection, schedule: Q01DX009 (ip), vehicle: saline).
